Source: US11078193B2 (priority 2014, dated 2021)

Columns and labels:
Format in all cases: cell-based
HBV [1] = assay: anti-HBV activity, HepG2.2.15 stable transfected cell line, HBV DNA from secreted virions by realtime PCR; settings: Hepatitis B virus, 144 h, HepG2.2.15 cells, 6 days of treatment
HBV [2] = assay: anti HBV activity, HepG2.117 inducibly HBV producing cell line (Tet-off), intracellular HBV DNA by realtime PCR; settings: Hepatitis B virus, 72 h, HepG2.117 cells, 3 days of treatment
[3] = Cytotoxicity, HepG2 cells, Resazurin assay; settings: human

Compound	EC50 (HBV [1]) [nM]	EC50 (HBV [2]) [nM]	CC50 at 4 days [3] [nM]
Cn1cc(S(=O)(=O)NC2(C)COC2)cc1C(=O)Nc1ccnc(C#N)c1 [Compound 1, N-(2-Cyanopyridin-4-yl)-1-methyl-4-[(3-methyloxetan-3-yl)sulfamoyl]-1H-pyrrole-2-carboxamide]	860	650	> 25000
Cn1cc(S(=O)(=O)NC2(C)COC2)cc1C(=O)Nc1cncc(C(F)(F)F)c1 [Compound 2, 1-Methyl-4-[(3-methyloxetan-3-yl)sulfamoyl]-N-[5-(trifluoromethyl)pyridin-3-yl]-1H-pyrrole-2-carboxamide]	> 1000	10400	> 25000
Cc1cc(NC(=O)c2cc(S(=O)(=O)NC3(C)COC3)cn2C)cnc1F [Compound 3, N-(6-Fluoro-5-methylpyridin-3-yl)-1-methyl-4-[(3-methyloxetan-3-yl)sulfamoyl]-1H-pyrrole-2-carboxamide]	> 1000	750	> 25000
Cn1cc(S(=O)(=O)NC2(C)COC2)cc1C(=O)Nc1cc(C(F)(F)F)ccn1 [Compound 4, 1-Methyl-4-[(3-methyloxetan-3-yl)sulfamoyl]-N-[4-(trifluoromethyl)pyridin-2-yl]-1H-pyrrole-2-carboxamide]	> 1000	2340	> 25000
Cn1cc(S(=O)(=O)NC2(C)COC2)cc1C(=O)Nc1cccc(C(F)(F)F)n1 [Compound 5, 1-Methyl-4-[(3-methyloxetan-3-yl)sulfamoyl]-N-[6-(trifluoromethyl)pyridin-2-yl]-1H-pyrrole-2-carboxamide]	920	3110	> 25000
Cn1cc(S(=O)(=O)NC(C)(C)C)c(Cl)c1C(=O)Nc1ccnc(C#N)c1 [Compound 6, 4-(tert-Butylsulfamoyl)-3-chloro-N-(2-cyanopyridin-4-yl)-1-methyl-1H-pyrrole-2-carboxamide]	590	650	> 25000
C[C@@H](NS(=O)(=O)c1cn(C)c(C(=O)Nc2ccnc(C(F)(F)F)c2)c1Cl)C(F)(F)F [Compound 10, 3-Chloro-1-methyl-4-{[(1R)-2,2,2-trifluoro-1-methylethyl]sulfamoyl}-N-[2-(trifluoromethyl)pyridin-4-yl]-1H-pyrrole-2-carboxamide]	70	160	> 25000
Cc1cc(NC(=O)c2c(Cl)c(S(=O)(=O)N[C@H](C)C(F)(F)F)cn2C)cnc1F [Compound 13, 3-Chloro-N-(6-fluoro-5-methylpyridin-3-yl)-1-methyl-4-{[(1R)-2,2,2-trifluoro-1-methylethyl]sulfamoyl}-1H-pyrrole-2-carboxamide]	110	180	> 25000
C[C@H](NS(=O)(=O)c1cn(C)c(C(=O)Nc2ccnc(C#N)c2)c1F)C(F)(F)F [Compound 19, N-(2-Cyanopyridin-4-yl)-3-fluoro-1-methyl-4-{[(1S)-2,2,2-trifluoro-1-methylethyl]sulfamoyl}-1H-pyrrole-2-carboxamide]	160	100	> 25000
C[C@@H](NS(=O)(=O)c1cn(C)c(C(=O)Nc2ccnc(C(F)(F)F)c2)c1F)C(F)(F)F [Compound 21, 3-fluoro-1-methyl-[[(1R)-2,2,2-trifluoro-1-methyl-ethyl]sulfamoyl]-N-[2-(trifluoromethyl)-4-pyridyl]pyrrole-2-carboxamide]	40	30	> 25000
C[C@@H](NS(=O)(=O)c1cn(C)c(C(=O)Nc2cccc(C#N)n2)c1Cl)C(F)(F)F [Compound 22, 3-chloro-N-(6-cyano-2-pyridyl)-1-methyl-[[(1R)-2,2,2-trifluoro-1-methyl-ethyl]sulfamoyl]pyrrole-2-carboxamide]	440	720	> 25000
C[C@@H](NS(=O)(=O)c1cn(C)c(C(=O)Nc2cccc(C#N)n2)c1F)C(F)(F)F [Compound 25, N-(6-cyano-2-pyridyl)-3-fluoro-1-methyl-4-[[(1R)-2,2,2-trifluoro-1-methyl-ethyl]sulfamoyl]pyrrole-2-carboxamide]	190	> 1000	> 25000
C[C@@H](NS(=O)(=O)c1cn(C)c(C(=O)Nc2cccc(C(F)(F)F)n2)c1F)C(F)(F)F [Compound 26, 3-fluoro-1-methyl-4-[[(1R)-2,2,2-trifluoro-1-methyl-ethyl]sulfamoyl]-N-[6-(trifluoromethyl)-2-pyridyl]pyrrole-2-carboxamide]	110	> 1000	> 25000
C[C@@H](NS(=O)(=O)c1cn(C)c(C(=O)Nc2ccc(F)cn2)c1F)C(F)(F)F [Compound 28, 3-fluoro-N-(5-fluoro-2-pyridyl)-1-methyl-4-[[(1R)-2,2,2-trifluoro-1-methyl-ethyl]sulfamoyl]pyrrole-2-carboxamide]	360	700	> 25000
C[C@@H](NS(=O)(=O)c1cn(C)c(C(=O)Nc2cnc(F)c(Br)c2)c1F)C(F)(F)F [Compound 29, N-(5-bromo-6-fluoro-3-pyridyl)-3-fluoro-1-methyl-4-[[(1R)-2,2,2-trifluoro-1-methyl-ethyl]sulfamoyl]pyrrole-2-carboxamide]	40	60	> 25000
C[C@@H](NS(=O)(=O)c1cn(C)c(C(=O)Nc2cc(F)nc(F)c2)c1F)C(F)(F)F [Compound 30, N-(2,6-difluoro-4-pyridyl)-3-fluoro-1-methyl-4-[[(1R)-2,2,2-trifluoro-1-methyl-ethyl]sulfamoyl]pyrrole-2-carboxamide]	< 100	10	> 25000
CC[C@@H](NS(=O)(=O)c1cn(C)c(C(=O)Nc2ccnc(C#N)c2)c1F)C(F)(F)F [Compound 31, N-(2-cyano-4-pyridyl)-3-fluoro-1-methyl-4-[[(1R)-1-(trifluoromethyl)propyl]-sulfamoyl]pyrrole-2-carboxamide]	30	40	> 25000
C[C@@H](NS(=O)(=O)c1cn(C)c(C(=O)Nc2ccnc(Cl)c2F)c1Cl)C(F)(F)F [Compound 33, 3-chloro-N-(2-chloro-3-fluoro-4-pyridyl)-1-methyl-4-[[(1R)-2,2,2-trifluoro-1-methyl-ethyl]sulfamoyl]pyrrole-2-carboxamide]	8	10	> 25000
C[C@@H](NS(=O)(=O)c1cn(C)c(C(=O)Nc2cnc(F)c(Br)c2)c1Cl)C(F)(F)F [Compound 34, N-(5-bromo-6-fluoro-3-pyridyl)-3-chloro-1-methyl-4-[[(1R)-2,2,2-trifluoro-1-methyl-ethyl]sulfamoyl]pyrrole-2-carboxamide]	50	100	> 25000
C[C@@H](NS(=O)(=O)c1cn(C)c(C(=O)Nc2cc(F)nc(F)c2)c1Cl)C(F)(F)F [Compound 35, 3-chloro-N-(2,6-difluoro-4-pyridyl)-1-methyl-4-[[(1R)-2,2,2-trifluoro-1-methyl-ethyl]sulfamoyl]pyrrole-2-carboxamide]	5	10	> 25000
CC[C@H](NS(=O)(=O)c1cn(C)c(C(=O)Nc2ccnc(C#N)c2)c1Cl)C(F)(F)F [Compound 37, 3-chloro-N-(2-cyano-4-pyridyl)-1-methyl-4-[[(1S)-1-(trifluoromethyl)-propyl]sulfamoyl]pyrrole-2-carboxamide]	150	200	> 25000
CC[C@@H](NS(=O)(=O)c1cn(C)c(C(=O)Nc2ccnc(C#N)c2)c1Cl)C(F)(F)F [Compound 38, 3-chloro-N-(2-cyano-4-pyridyl)-1-methyl-4-[[(1R)-1-(trifluoromethyl)propyl]-sulfamoyl]pyrrole-2-carboxamide]	40	50	> 25000
Cn1cc(S(=O)(=O)NC2(C(F)(F)F)CC2)c(Cl)c1C(=O)Nc1ccnc(C#N)c1 [Compound 39, 3-chloro-N-(2-cyano-4-pyridyl)-1-methyl-4-[[1-(trifluoromethyl)cyclopropyl]-sulfamoyl]pyrrole-2-carboxamide]	90	90	> 25000
C[C@@H](NS(=O)(=O)c1cn(C)c(C(=O)Nc2ccnc(C(C)(F)F)c2)c1Cl)C(F)(F)F [Compound 182, 3-chloro-N-[2-(1,1-difluoroethyl)-4-pyridyl]-1-methyl-4-[[(1R)-2,2,2-trifluoro-1-methyl-ethyl]sulfamoyl]pyrrole-2-carboxamide]		1300	> 25000
C[C@@H](NS(=O)(=O)c1cn(C)c(C(=O)Nc2cc(C#N)ccn2)c1Cl)C(F)(F)F [Compound 183, 3-chloro-N-(4-cyano-2-pyridyl)-1-methyl-4-[[(1R)-2,2,2-trifluoro-1-methyl-ethyl]sulfamoyl]pyrrole-2-carboxamide]		1400	> 25000
C[C@@H](NS(=O)(=O)c1cn(C)c(C(=O)Nc2nc(F)c(F)cc2F)c1Cl)C(F)(F)F [Compound 184, 3-chloro-1-methyl-4-[[(1R)-2,2,2-trifluoro-1-methyl-ethyl]sulfamoyl]-N-(3,5,6-trifluoro-2-pyridyl)pyrrole-2-carboxamide]		1200	> 25000
C[C@@H](NS(=O)(=O)c1cn(C)c(C(=O)Nc2c(Cl)c(F)nc(F)c2Cl)c1Cl)C(F)(F)F [Compound 186, 3-chloro-N-(3,5-dichloro-2,6-difluoro-4-pyridyl)-1-methyl-4-[[(1R)-2,2,2-trifluoro-1-methyl-ethyl]sulfamoyl]pyrrole-2-carboxamide]		10500	> 25000
C[C@@H](NS(=O)(=O)c1cn(C)c(C(=O)Nc2c(F)c(F)nc(F)c2Cl)c1Cl)C(F)(F)F [Compound 187, 3-chloro-N-(3-chloro-2,5,6-trifluoro-4-pyridyl)-1-methyl-4-[[(1R)-2,2,2-trifluoro-1-methyl-ethyl]sulfamoyl]pyrrole-2-carboxamide]		710	> 25000
